Laboratory results published in US12685297B2, “Genetically modified mouse, methods for producing the same, and uses thereof” (MacKay Memorial Hospital, priority 2023, dated 2026).

Test system: GYP.Mur knock-in mice and control mice
Assay: Evaluation of anti-hypertensive medications: blood pressure after oral gavage
Type: in vivo, mouse (C57BL/6J)
Method: Mouse BP was measured using an 8-channel non-invasive blood pressure system, a conventional instrument for murine BP measurements with about 99% correlation to the invasive telemetry approach. The BP system is a traditional, tail-cuff method, with a volume-pressure recording (VPR) sensor-cuff (similar to a stethoscope) and an occlusion cuff (similar to the arm cuff for conventional human BP measurement). The instrument settings in this study were 5 acclimation cycles, 15 cycles per set, 250 mmHg as the maximal occlusion pressure, and 20 seconds for deflation. Before the measurement, the experimenter gently placed a mouse in a holder or at the entry point of the holder, from which the mouse could voluntarily walked into the holder. An occlusion cuff and a VPR cuff were then fitted onto the mouse tail. The holder carrying a cuffed mouse inside was moved to the warming platform and covered with a thermal blanket, which ensured the temperature of the tail to be within 32-35° C. during volume-pressure-based BP measurements. Invalid measurements were mostly due to unmet tail temperature or restless states of the animal, which were identified and excluded. After BP measurements, the mice were immediately put back to their own cage. The body weight (BW) of each mouse was measured for preparation of individual anti-hypertensive doses (in mg drug per Kg BW). The mice were individually administered by oral gavage of an anti-hypertensive drug mixed in 100 μL autoclaved ddH2O. The dose and maximal efficacy of an anti-hypertensive drug was determined based on the degrees of BP drop within an hour of anti-hypertensive administration. One dose of an anti-hypertensive drug was tested on a single day. On the morning of the test day, the blood pressure of GYP.Mur knock-in mice and age-matched control mice (wild-type mice) was first measured. Only the mice with SBP>120 mmHg on that day were tested with an anti-hypertensive medication. The BP and heart rates (HR) of the mice were measured at the 1st, 3rd, 5th, and the 24th hour post-medication. […]

Row | SMILES | duration of sustained BP-lowering effects (following oral gavage, control and GYP.Mur knock-in mice) [h] | BP-lowering effects at the 3rd hour post-oral gavage (3rd hour post-oral gavage, compared with one hour, data not shown) | time after medication at which BP was lowered most substantially (oral gavage, control and GYP.Mur knock-in mice, data not shown)
1 | CCOC(=O)C1=C(COCCN)NC(C)=C(C(=O)OC)C1c1ccccc1Cl (stereo not drawn) [amlodipine] | 5 |  | 
2 | C[C@H](CS)C(=O)N1CCC[C@H]1C(=O)O [captopril] |  | slightly diminished | one
